Experimental data reported in US8193169B2, “(20R)-2α-methyl-19,26,2-trinor-vitamin D analogs” (Wisconsin Alumni Research Foundation, priority 2006, dated 2012).

What was measured:
HL-60 cells = experiment: HL-60 cell differentiation (nitro blue tetrazolium reduction); type: cell-based, human; settings: for EC50: HL-60 cells, differentiation into monocytes, FIG. 2
Description: The study drugs were dissolved in ethanol and the concentrations determined using UV spectrophotometry. Serial dilutions were prepared so that a range of drug concentrations could be tested without changing the final concentration of ethanol (≦0.2%) present in the cell cultures.
Human promyelocytic leukemia (HL60) cells were grown in RPMI-1640 medium containing 10% fetal bovine serum. The cells were incubated at 37° C. in the presence of 5% CO2.
HL60 cells were plated at 1.2×10^5 cells/ml. Eighteen hours after plating, cells in duplicate were treated with drug. Four days later, the cells were harvested and a nitro blue tetrazolium reduction assay was performed (Collins et al., 1979; J. Exp. Med. 149:969-974). The percentage of differentiated cells was determined by counting a total of 200 cells and recording the number that contained intracellular black-blue formazan deposits. Verification of differentiation to monocytic cells was determined by measuring phagocytic activity (data not shown).

[1] = tested on: 24-hydroxylase (24Ohase) gene promoter; experiment: In vitro transcription assay, luciferase reporter in ROS 17/2.8 (bone) cells; type: cell-based; settings: for EC50: ROS 17/2.8 cells, 24-hydroxylase promoter-luciferase, FIG. 3, read-out: EC50, transcriptional activity in bone cells
Description: Transcription activity was measured in ROS 17/2.8 (bone) cells that were stably transfected with a 24-hydroxylase (24Ohase) gene promoter upstream of a luciferase reporter gene (Arbour et al., 1998). Cells were given a range of doses. Sixteen hours after dosing the cells were harvested and luciferase activities were measured using a luminometer.
RLU=relative luciferase units.

[2] = Bone calcium mobilization (serum calcium) in vitamin D-deficient rats; type: in vivo, Sprague-Dawley rats; settings: vitamin D-deficient rats on 0.02% Ca diet, FIG. 4
Description: (§1) Male, weanling Sprague-Dawley rats were placed on Diet 11 (0.47% Ca) diet+AEK oil for one week followed by Diet 11 (0.02% Ca)+AEK oil for 3 weeks. The rats were then switched to a diet containing 0.47% Ca for one week followed by two weeks on a diet containing 0.02% Ca. Dose administration began during the last week on 0.02% calcium diet. Four consecutive ip doses were given approximately 24 hours apart. Twenty-four hours after the last dose, blood was collected from the severed neck and the concentration of serum calcium determined as a measure of bone calcium mobilization. The first 10 cm of the intestine was also collected for intestinal calcium transport analysis using the everted gut sac method.

[3] = molecular target: T1, full-length recombinant rat vitamin D receptor (Rattus norvegicus, UniProt P13053); experiment: biochemical
T1 sequence (P13053 1-423): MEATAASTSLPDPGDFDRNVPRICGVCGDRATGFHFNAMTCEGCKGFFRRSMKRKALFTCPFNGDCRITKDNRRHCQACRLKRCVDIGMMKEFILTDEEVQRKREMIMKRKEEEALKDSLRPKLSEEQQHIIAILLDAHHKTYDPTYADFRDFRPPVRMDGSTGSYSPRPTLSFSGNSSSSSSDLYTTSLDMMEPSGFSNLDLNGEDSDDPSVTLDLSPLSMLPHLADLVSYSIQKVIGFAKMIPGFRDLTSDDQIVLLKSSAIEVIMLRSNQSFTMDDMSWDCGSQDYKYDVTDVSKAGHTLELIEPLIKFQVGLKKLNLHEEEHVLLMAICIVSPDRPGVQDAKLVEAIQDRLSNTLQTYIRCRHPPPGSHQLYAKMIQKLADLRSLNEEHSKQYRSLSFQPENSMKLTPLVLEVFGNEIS

[4] = molecular target: T1, full-length recombinant rat vitamin D receptor; settings: compared to 1,25(OH)2D3
[5] = Intestinal calcium transport, everted gut sac method, in vitamin D-deficient rats; type: in vivo, Sprague-Dawley rats; settings: 35,100 pmol/day ip for 4 consecutive days, FIG. 5
Description: as §1

[6] = compared to 1α,25-dihydroxyvitamin D3

Q: What does the source list for `C=C1/C(=C\C=C2/CCC[C@]3(C)[C@@H]([C@H](C)CCCC(C)(C)O)CC[C@@H]23)C[C@@H](O)C[C@@H]1O` [1,25(OH)2D3, 1α,25-dihydroxyvitamin D3, reference compound]?
A: EC50 (HL-60 cells): 2 nM; EC50 [1]: 0.3 nM; Bone calcium mobilization activity (serum calcium) ([2]; 780 pmol/day): significant activity; Serum calcium levels ([2]; all dosages): increased serum calcium levels at all dosages

Q: With `CC(CCCCO)C1CCC2C(=CC=C3CC(O)C(C)C(O)C3)CCCC21C` [B-9, (20R)-2α-methyl-19,26,27-trinor-1α,25-dihydroxyvitamin D3] as the compound, how does the EC50 (HL-60 cells; Homo sapiens) read?
A: 30 nM

Q: What about the “HL-60 cell differentiation activity relative to 1α,25-dihydroxyvitamin D3 (times less activity)” value (HL-60 cells; [6]) of the same compound?
A: ~10 times

Q: What about the Ki [3] of the same compound?
A: 1 nM

Q: What about the “VDR binding potency relative to 1,25(OH)2D3 (times less potent)” value [4] of the same compound?
A: about 10 times

Q: What about the “Intestinal calcium transport activity” value [5] of the same compound?
A: did not result in any activity

Q: What about the EC50 [1] of the same compound?
A: 10 nM

Q: What about the “Transcriptional activity in bone cells relative to 1α,25-dihydroxyvitamin D3 (times less)” value [1, 6] of the same compound?
A: about 30 times

Q: And the “Bone calcium mobilization activity (serum calcium)” value ([2]; 35,100 pmol/day ip for 4 consecutive days)?
A: did not result in any mobilization of bone calcium
